Several values for one entry are separate records, joined by “and”; a condition that tells them apart may be missing. Equal values may be shown once.

Series [1] addresses T1, human A3 receptors (Homo sapiens, UniProt P0DMS8).
T1 construct: expressed in transfected cells; host or cells: CHO cells (membrane preparations)
T1 sequence (P0DMS8 1-318): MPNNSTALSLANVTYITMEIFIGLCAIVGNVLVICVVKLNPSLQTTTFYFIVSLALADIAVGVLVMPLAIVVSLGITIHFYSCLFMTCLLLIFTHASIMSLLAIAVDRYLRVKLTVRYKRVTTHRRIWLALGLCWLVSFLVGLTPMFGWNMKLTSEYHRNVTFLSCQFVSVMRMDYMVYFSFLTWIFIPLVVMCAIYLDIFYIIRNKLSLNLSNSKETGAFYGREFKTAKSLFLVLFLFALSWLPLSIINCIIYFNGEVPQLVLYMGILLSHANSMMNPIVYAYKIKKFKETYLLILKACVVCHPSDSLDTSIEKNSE
Description: A3 receptor radioligand binding, displacement of [125I]-AB-MECA. As to conditions: for IC50: displacement of [125I]-AB-MECA (0.3 nM), human A3 receptors expressed in CHO cells, membranes, 60 min room temperature; for % Displacement of [125I]-AB-MECA: human A3 receptors in CHO cells. (In general: Displacement assays read how much labelled ligand stays bound in the presence of the test substance.)

The test system of series [2] is A2 receptor. Description: A2 receptor functional activity, relaxation of isolated trachea pre-contracted with carbachol. Set-up: species or system guinea-pig. As to conditions: for IC25, relaxation at A2 receptors of guinea-pig trachea: concentration for 25% of the maximum response to NECA, trachea precontracted with carbachol (100 nM).
In series [3] the target is T2, A1 receptor (Cavia porcellus, UniProt P47745).
T2 construct: from tissue; host or cells: guinea-pig isolated paced left atria
T2 sequence (P47745 1-326): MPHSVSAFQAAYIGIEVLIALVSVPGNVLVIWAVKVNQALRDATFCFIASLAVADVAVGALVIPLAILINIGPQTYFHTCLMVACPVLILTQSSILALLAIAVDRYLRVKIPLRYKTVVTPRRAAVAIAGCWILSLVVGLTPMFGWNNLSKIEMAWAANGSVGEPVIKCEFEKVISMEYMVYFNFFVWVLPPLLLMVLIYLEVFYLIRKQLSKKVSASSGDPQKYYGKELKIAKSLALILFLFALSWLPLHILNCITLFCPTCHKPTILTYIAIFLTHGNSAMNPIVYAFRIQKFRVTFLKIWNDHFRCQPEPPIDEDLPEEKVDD
Description: A1 receptor functional activity, negative inotropic response of isolated paced left atria. Set-up: species or system guinea-pig. The conditions noted are these: for IC25, negative inotropic action at A1 receptors of guinea-pig atria: concentration for 25% of the maximum response to NECA, cumulative concentration-response curves.

A short description of series [4]: pKa determination with co-solvent titrations. The class given is physicochemical. As to conditions: read-out: pKa (s).
Series [5] can be described thus: Partition coefficient, propylene glycol dipelargonate (PGDP)/water model. Type of series: physicochemical. The conditions noted are these: 21.2 °C; for Log P(s): partition solvent propylene glycol dipelargonate (PGDP)/water, neutral species. The text has this:
The partition measurements were based on a long chain ester (propylene glycol dipelargonate-PGDP)/water model.

In series [6] the test system is guinea-pig isolated left atria. Description: Myocardial contractile dysfunction (stunning) after simulated ischaemia of isolated atria. On the procedure: The following experiment was carried out to evaluate the efficacy of compound 6 in protecting against myocardial contractile dysfunction (stunning) after simulated ischaemia of isolated atria.
Guinea-pig isolated left atria were set up in tissue baths containing Krebs-bicarbonate solution gassed with 5% CO2 in oxygen at 37° C. and electrically paced at 2 Hz with pulses of threshold voltage +50% and 5 ms pulse width. Developed tension was recorded. After equilibrium, they were exposed to 30 min of simulated ischaemia by gassing with 5% CO2 in nitrogen and removing the glucose substrate which was replaced with choline chloride (7 mM) to maintain isotonicity. Pacing was continued throughout. After 30 min, the tissues were reoxygenated and glucose was returned. […] This partial recovery was the index of myocardial stunning. […] This timing was to simulate administration at the time of reperfusion induced by thrombolyic therapy following myocardial infarction.

For series [7] the following is noted: empiric evidence; cited from earlier work.
For series [8] the following is noted: e.g. from about 70 mm Hg to about 90 mm Hg; cited from earlier work.

In general, melting point refers to the temperature of the solid-liquid transition. The IC50 is the midpoint of a concentration-inhibition curve. On to `CNC(=O)[C@H]1O[C@@H](n2cnc3c(NCc4ccccn4)ncnc32)C(O)C1O` (stereo partly shown) [Compound 3, N^6-(2-picolyl)adenosine-5′-N-methyluronamide], for which the melting point is 84 to 86 °C. Moreover, the 50% inhibitory concentration (IC50) in series [1] was determined as 6 nM.
Turning to `CCNC(=O)[C@H]1O[C@@H](n2cnc3c(N)ncnc32)[C@H](O)[C@@H]1O` [NECA, N-ethylcarboxamidoadenosine, reference compound], the “IC25, relaxation at A2 receptors of guinea-pig trachea” value in series [2] came out at 940 nM. Also, in [3], the “IC25, negative inotropic action at A1 receptors of guinea-pig atria” value amounted to 52 nM.
Compound `CNC(=O)[C@H]1O[C@@H](n2cnc3c(NCc4cc(C)ccn4)ncnc32)C(O)C1O` (stereo partly shown) [Compound 1, N^6-(4-methyl-2-picolyl)-adenosine-5′-N-methyluronamide] showed an IC50 in series [1] of 2.2 nM.
On to `CNC(=O)[C@H]1O[C@@H](n2cnc3c(NCc4cc(I)c5oc(N(C)C)nc5c4)nc(C#Cc4ccccc4)nc32)[C@H](O)[C@@H]1O` [Compound 8, N^6-[(2-dimethylamino-7-iodo-1,3-benzoxazol-5-yl)-methyl]-2-(2-phenyl-1-ethynyl)-adenosine-5′-N-methyluronamide], for which the IC50 in series [1] is 21 to 80 nM.
As usually defined, the pKa is the negative logarithm of the acid dissociation constant. The term Log D denotes lipophilicity at a set pH, counting ionised and neutral species. Read a low Log D as a more hydrophilic compound. With `CNC(=O)[C@H]1O[C@@H](n2cnc3c(NCc4cc(I)c5oc(N(C)C)nc5c4)ncnc32)C(O)C1O` (stereo partly shown) [Compound 6, N^6-[(2-dimethylamino-7-iodo-1,3-benzoxazol-5-yl)-methyl]-adenosine-5′-N-methyluronamide], in series [4], the pKa worked out at 3.66 ± 0.03. Further, the “IC25, relaxation at A2 receptors of guinea-pig trachea” value in series [2] came to 9070 nM. In addition, in [2] (ratio of tracheal functional value to A3 binding IC50), the “Selectivity for A3 receptors (radioligand binding) against A2 receptors (tracheal relaxation)” value was 5.6×10^6. Besides, the “IC25, negative inotropic action at A1 receptors of guinea-pig atria” value in series [3] is 1000 nM. For the same compound, the “Selectivity for A3 receptors (radioligand binding) against A1 receptors (negative inotropy)” value in [3] (ratio of atrial functional value to A3 binding IC50) is given as 6.25×10^6. Moreover, the 50% inhibitory concentration (IC50) in series [3] (read-out: IC50, negative inotropic action at A1 receptors of guinea-pig atria) came to 10000 nM; in series [1], 0.0016 nM. The log distribution coefficient (Log D) in series [5] (partition solvent PGDP/water) was 1.483. Moreover, the “Log P(s)” value in series [5] came out at 1.484; in series [5] (listed as compound 10) it was 1.48±0.03. For the same compound, the “Potency for binding to the human A3 receptor (in words)” value in series [1] is listed as “picomolar potency”. The “% Displacement of [125I]-AB-MECA” value in series [1] (Concentration (Log M) −7) was found to be 94%; in [1] (Concentration (Log M) −9) it was 79%; in [1] (Concentration (Log M) −10), 73%; in series [1] (Concentration (Log M) −11), 68%; in series [1] (Concentration (Log M) −12) it was 47%. Moreover, the “A3 binding potency compared with IB-MECA” value in [1] (comparison of IC50 values of Table 1) is given as “approximately two orders of magnitude more potent”. In addition, the “Maximum developed contractile tension (%), Post-ischaemic, Mean” value in series [6] (Compound 6 5 × 10^−9 M at reoxygenation, % of pre-ischaemic value, n=3) was 84.0%; in [6] (Compound 6 5 × 10^−9 M at reoxygenation, % of pre-ischaemic value, n=3, listed as compound 6) it was 84.0±18.0%. The “Maximum developed contractile tension, Post-ischaemic” value in series [6] (Compound 6 5 × 10^−9 M introduced at reoxygenation after 30 min simulated ischaemia, single experiments) is 0.72 g and 0.42 g and 0.40 g.
As to `CNC(=O)[C@H]1O[C@@H](n2cnc3c(NCc4cccc(C(C)=O)n4)ncnc32)C(O)C1O` (stereo partly shown) [Compound 4, N^6-(6-acetyl-2-picolyl)adenosine-5′-N-methyluronamide], the melting point fell in the range of 226 to 228 °C. Further, the 50% inhibitory concentration (IC50) in series [1] came to 0.4 nM.
The compound `CNC(=O)[C@H]1O[C@@H](n2cnc3c(NCc4ccc5oc(N(C)C)nc5c4)ncnc32)C(O)C1O` (stereo partly shown) [Compound 7, N^6-[(2-Dimethylamino-1,3-benzoxazol-5-yl)-methyl]-adenosine-5′-N-methyluronamide] showed a melting point of 239 to 241 °C. The pKa in series [4] was 3.61. The IC50 in series [1] came out at 450 nM.
In the case of “N^6-(4-iodo-2-picolyl)-adenosine-5′-N-methyluronamide [Compound 2]”, the half-inhibitory concentration (IC50) in series [1] turned out to be 0.45 nM.
`CNC(=O)[C@H]1O[C@@H](n2cnc3c(NCc4cc(I)ccn4)nc(C#Cc4ccccc4)nc32)[C@H](O)[C@@H]1O` [Compound 5, N^6-(4-iodo-2-picolyl)-2-(2-phenyl-1-ethynyl)-adenosine-5′-N-methyluronamide] registered an IC50 in series [1] of 31 to 45 nM.
As for `CC(C)NCC(O)COc1cccc2ccccc12` (stereo not shown) [propranolol], the “Effective partition after allowing for protonation, log10 PGDP/H2O scale” value in [7] is approximately 0.8.
Take `CNC(=O)[C@H]1O[C@@H](n2cnc3c(NCc4cccc(I)c4)ncnc32)[C@H](O)[C@@H]1O` [IB-MECA]: the “Increase in basal or systemic blood pressure” value in [8] was 10-30%. Further, in [6] (IB-MECA 3 × 10^−7 M at reoxygenation, % of pre-ischaemic value, 6 experiments), the “Maximum developed contractile tension (%), Post-ischaemic, Mean” value was 66.5±6.5% and 66.5%. Also, the “Maximum developed contractile tension (%), Post-ischaemic” value in series [6] (IB-MECA 3 × 10^−7 M at reoxygenation, % of pre-ischaemic value, single experiments) is 83.3% and 45.5% and 60% and 63% and 87.5%.

(Values after patent publication US7414036B2, “Compounds useful as A3 adenosine receptor agonists” (Muscagen Limited, priority 2002, dated 2008).)
